Broadly, the IC50 is the point on the concentration scale where inhibition reaches its midpoint.

The values below come from publication PMC6345779, “Hypoculoside, a sphingoid base-like compound from Acremonium disrupts the membrane integrity of yeast cells” (Scientific Reports, 2019).

The subject of experiment [1] is Candida albicans strain SC5314. Description: Broth microdilution growth inhibition of Candida albicans (CLSI guidelines, OD600 after 24 h). Type of experiment: cell-based. Conditions: strain SC5314, OD600 nm after 24 hours, read-out: IC50 for inhibition of growth of C. albicans cells. As for the experimental part: Figure 2 Hypoculoside has antifungal activity. (A) Workflow used in the purification and analysis of hypoculoside from Acremonium sp. F2434. (B) Structure of hypoculoside (8) and its aglycone derivative hypoculine (9). (C) Logarithmically growing Candida albicans cells were exposed to hypoculoside and amphotericin B at various concentrations in triplicates in a 96-well microplate. Growth of the cells was quantified by recording the absorbance at 600 nm after 24 hours. Growth (normalized with respect to DMSO-treated cells) is plotted against log of concentration of the compound. A picture of the microplate after 24 hours of incubation at 30 °C is shown in Supplementary Fig. S2A. (D) Effect of hypoculoside on the growth of Saccharomyces cerevisiae cells grown in YPD medium was analyzed in the similar way as for Candida albicans described above in C.
We evaluated the potency of hypoculoside by examining its effect on the growth of Candida albicans strain (SC5314) using the Clinical and Laboratory Standards Institute (CLSI) guidelines. We used the well-known antifungal amphotericin B as a positive control. We exposed logarithmically growing Candida albicans cells to hypoculoside and amphotericin B at various concentrations and monitored the growth by recording the OD600 nm after 24 hours. […]

In experiment [2] the test system is Saccharomyces cerevisiae diploid wild-type strain (BY4743). Description: Growth inhibition of wild type Saccharomyces cerevisiae in YPD medium (96-well, OD600). It counts as cell-based. Particulars: for concentration that completely inhibited the growth of wild type yeast cells: 24 hours at 30 °C (Fig. 5B); for inhibitory concentration relative to inhibitory concentration of hypoculoside: wild type yeast cells, higher than hypoculoside. As for the experimental part: (§1) Figure 5 Structure-activity studies of hypoculoside. (A) Wild type strain (BY4743), vps35Δ, pep8Δ, vps20Δ, vps27Δ and vps36Δ strains were grown in YPD medium in the presence of hypoculoside or hypoculine at the indicated concentrations. Normalized growth at the different concentrations of hypoculoside and hypoculine tested after 24 hours of incubation at 30 °C is plotted for each strain. (B) Wild type strain (BY4743), vps35Δ, pep8Δ, vps20Δ, vps27Δ and vps36Δ strains were grown in YPD medium in the presence of hypoculoside or phytosphingosine or dihydrosphingosine at the indicated concentrations. Normalized growth at the different concentrations of hypoculoside, phytosphingosine and dihydrosphingosine tested after 24 hours of incubation at 30 °C is plotted for each strain.
Susceptibility of Candida albicans strain SC5314 to hypoculoside and amphotericin B was determined by a broth microdilution assay using Clinical Laboratory Standards Institute (CLSI) guidelines. Cells grown to exponential phase in YPD medium (1% Yeast extract, 2% Bacto peptone and 2% glucose) were harvested, washed and resuspended in RPMI 1640 medium at a density of 2×10^3 cells/mL. RPMI 1640 medium with L-glutamine without sodium bicarbonate (Sigma) was buffered with 0.165 M morpholinepropanesulfonic acid (MOPS) to a pH of 7.0. Two-fold dilutions of hypoculoside and amphotericin B were prepared such that final concentration of DMSO was 1% in all cultures. Cell suspension was distributed in microtiter plate (200 µL/well) and incubated at 35 °C with 220 rpm for 24 h. The Saccharomyces cerevisiae diploid wild-type strain (BY4743) was used for determining the Inhibitory Concentration (IC) of hypoculoside. Frozen yeast cells were allowed to recover on YPD agar plates and grown in YPD medium for nine generations (OD600 nm ≤ 2). Cells were diluted to OD600 nm of 0.0625 in YPD medium. 200 μL of the diluted yeast culture was transferred into the 96-well microtiter plate having 2-fold serially diluted concentrations of hypoculoside. Cells were incubated in a microplate reader for 16–24 hours at 30 °C with shaking. IC of hypoculoside was computed by comparing the growth of treated versus control cells.

Experiment [3] has as its system vps35Δ, pep8Δ, vps20Δ, vps27Δ and vps36Δ strains. Put plainly: Single-mutant sensitivity growth assay of deletion strains in YPD medium. Type of experiment: cell-based, Saccharomyces cerevisiae. Conditions: for growth of the 5 hypoculoside-sensitive mutants compared with wild type strain: 20 µM, vps35, pep8, vps20, vps27, vps36. As for the experimental part:
Figure 3 Homozygous profiling of hypoculoside in Saccharomyces cerevisiae. (A) logFC (Fitness Coefficient) was plotted against P-value for the 3702 mutants that were analyzed by HOP. The more negative the logFC value of a mutant, more sensitive is the mutant to hypoculoside. Mutants that have logFC < −0.5 and P-value < 0.05 are indicated by red dots and the remaining strains are indicated as blue dots. For the sake of clarity, gene names of only a subset of the top hits are indicated in the plot. (B) Wild type strain BY4743 and 24 deletion strains that were sensitive to hypoculoside in the HOP assay, were grown in the YPD medium in the presence of either DMSO or hypoculoside at different concentrations (0, 0.6, 1.3, 2.7 and 5.5 µM). Normalized growth at the different concentrations of hypoculoside tested after 24 hours of incubation at 30 °C is plotted for each strain.
To test the validity of our HOP data, we first identified 336 ‘hypoculoside-sensitive’ mutants (Supplementary Table S1) that had at least a 1.4-fold inhibitory effect on their growth rate (i.e. logFC ≤ −0.5) with a P-value ≤ 0.05. From the list of 336 mutants, we chose 24 mutants that represent different Gene Ontology categories (see below) and tested their sensitivity to hypoculoside. Eighteen of the total 24 mutants were sensitive to hypoculoside confirming the HOP data (Fig. 3B). We also tested mutants that were predicted to be resistant to hypoculoside (positive logFC ≥ 0.5 and P-value ≤ 0.05). But none of them were resistant to hypoculoside in comparison to wild type strain in the single-mutant sensitivity assays (data not shown).
as §1

In experiment [4] the test system is Wild type strain (BY4743). Put plainly: Rescue of myriocin-induced growth inhibition in yeast. It counts as cell-based, Saccharomyces cerevisiae. Particulars: for rescue of myriocin-induced inhibition: added at 10 μM. The method, then:
Myriocin is an inhibitor of Serine palmitoyltransferase (SPT), which catalyzes the first step in the synthesis of sphingolipid biosynthesis. Addition of PHS or DHS can rescue inhibition caused by myriocin[28]. We tested whether hypoculoside can rescue the toxicity of myriocin–treated cells.
Wild type strain (BY4743) was grown in YPD medium containing different concentrations of myriocin and either phytosphingosine (PHS) or dihydrosphingosine (DHS) or hypoculoside (HYP) at the indicated concentrations. Normalized growth at the different concentrations after 24 hours of incubation at 30 °C is plotted for the various cultures.

The next experiment concerns Staphylococcus aureus. Also on record: method as in PMID 23128426. Conditions: also disrupt cell membrane; cited from earlier work.
Experiment [5] concerns vacuoles of wild type yeast cells. Description: FM 4-64 fluorescence microscopy of vacuolar structure. Type of experiment: cell-based, Saccharomyces cerevisiae. Particulars: 11.6 µM, FM 4-64 pre-labelled wild type cells, N = 100 cells. The method, then:
As several vacuolar transport mutants were sensitive to hypoculoside (Fig. 3), we examined the effect of hypoculoside on the vacuolar structure of yeast cells. We incubated wild type yeast cells with FM 4–64, a dye that stains the vacuolar membranes, for 1 hour. We then washed off the excess FM 4–64 from the medium and transferred the cells into fresh medium with either hypoculoside or hypoculine or DMSO. […] In contrast, about 50% of 11.6 µM hypoculoside-treated cells had defective vacuoles (Fig. 7B). However, only 3% of 11.6 µM hypoculine-treated cells had defective vacuoles. Thus, the effect of hypoculoside and hypoculine on vacuolar structure correlates with their inhibitory activities.
Figure 7 Hypoculoside but not hypoculine disrupts the vacuolar structure of yeast cells. Wild type yeast cells containing vacuoles pre-labelled with the lipophilic dye FM 4-64 were exposed to either DMSO or hypoculoside or hypoculine at the indicated concentrations for 1 hour. Effects of the compounds on vacuolar morphology was analyzed by fluorescence microscopy. […] (B) Quantification of the various categories for cells treated with either DMSO or hypoculoside or hypoculine is plotted (N = 100 cells). […]
Labeling of yeast cells with FM4-64 (Invitrogen) was done as previously reported. […] The images were acquired using an inverted fluorescence microscope ZEISS LSM 5 LIVE (Carl Zeiss, Oberkochen, Germany).

In a further experiment the test system is BY4743 cells. Put plainly: Propidium iodide (PI)-staining assay of plasma membrane integrity. It counts as cell-based, Saccharomyces cerevisiae. Particulars: 1.8, 3.5 and 5.3 µM, 30′ and 2 hours. The method, then:
Figure 8 Hypoculoside but not hypoculine disrupts the membrane integrity of yeast cells. (A) Wild type yeast cells pre-treated with either DMSO or hypoculoside (5.4 μM) were exposed to FM 4-64FX. Uptake of FM 4-64FX after 0′, 30′ and 120′ was analyzed by fluorescence microscopy of fixed cells. (B) Yeast cells were incubated with either DMSO or hypoculoside or hypoculine at different concentrations (1.8, 3.5 and 5.3 µM) for 30′ and 2 hours. They were then treated with propidium iodide (PI) and percentage of PI-staining cells was assayed by fluorescence microscopy. Representative images of cells visualized by bright field and fluorescence microscopy are shown along with quantification of PI-staining cells (N = 100 cells) in (C).
We then tested whether hypoculoside causes membrane leakage using the membrane impermeant dye propidium iodide (PI). […] We then incubated the cells with PI and visualized its uptake by fluorescence microscopy. […]
BY4743 cells (OD600 nm ≈ 1) were exposed to various concentrations of hypoculoside or hypoculine or DMSO in YPD for 30′ and 2 hours. […] PI uptake by cells was assayed by bright-field and fluorescence microscopy [Excitation/Emission (nm): 535/617] and the percentage of PI-staining cells (N ≥ 100) was calculated.

The next experiment deals with fungi. Further details: method as in PMID 10654417. Particulars: cited from earlier work.
Another experiment deals with cancer cell lines. Also on record: method as in PMID 18343365. Particulars: cited from earlier work.

`C[C@@H]1[C@H](O)[C@@H](C)/C=C/C=C/C=C/C=C/C=C/C=C/C=C/[C@H](O[C@@H]2O[C@H](C)[C@@H](O)[C@H](N)[C@@H]2O)C[C@@H]2O[C@](O)(C[C@@H](O)C[C@@H](O)[C@H](O)CC[C@@H](O)C[C@@H](O)CC(=O)O[C@H]1C)C[C@H](O)[C@H]2C(=O)O` [amphotericin B, reference compound]: in experiment [1], the IC50 worked out at 32 nM.
On to `CCCCCCCCCCCCCCC[C@@H](O)[C@@H](N)CO` [DHS, dihydrosphingosine, reference compound], for which the “concentration that completely inhibited the growth of wild type yeast cells” value in experiment [2] (BY4743, YPD) was 40 µM. Besides, in [2], the “inhibitory concentration relative to inhibitory concentration of hypoculoside” value was “about 4 fold”. Further, in experiment [3], the “growth of the 5 hypoculoside-sensitive mutants compared with wild type strain” value is “lower in comparison to wild type strain”. The “rescue of myriocin-induced inhibition” value in [4] was “completely rescued”. In the experiment on Staphylococcus aureus, the “growth inhibition of Staphylococcus aureus” value (shortened to “growth inhibition”) is “inhibit the growth”.
For the compound `CC(N)C(O)CCCCCCCCCCCCCCCCCCC(O)C(C)O` (stereo not shown) [hypoculine], the “concentration that inhibited the growth of wild type cells” value in experiment [2] (BY4743, YPD, 24 hours at 30 °C (Fig. 5A)) is over 200 µM. Moreover, in [3] (mutants except for pep8 and vps35 (vps20, vps27, vps36), YPD, 24 hours at 30 °C), the “concentration at which mutants still displayed significant growth” value was over 200 µM. Moreover, the “cells with defective vacuoles” value in [5] came to 3%. The “cells with PI staining” value with BY4743 cells was “less than 10%”.
Consider `CCCCCCC(=O)CCCCCC/C=C/C[C@@H](O)[C@H](O)[C@@](N)(CO)C(=O)O` [Myriocin], for which the “concentration that inhibited the growth of yeast cells” value in experiment [4] (wild type BY4743, YPD, 24 hours at 30 °C) is 3.11 µM.
On to `C[C@@H](N)[C@H](O)CCCCCCCCCCCCCCC(=O)CCCCCCC[C@@H](O)[C@@H](N)CO` [Oceanin], for which the “toxicity to fungi compared with oceanapiside” value in the experiment with fungi is recorded as “considerably more toxic to fungi”.
With `CCCCCCCCCCCCC/C=C/[C@@H](O)[C@@H](N)CO` [sphingosine, (2S,3R,4E)-2-amino-4-octadecen-1,3-diol], in the experiment with Staphylococcus aureus, the “growth inhibition” value was “inhibit the growth”.
Turning to `CCCCCCCCCCCCCC[C@@H](O)[C@@H](O)[C@@H](N)CO` [PHS, phytosphingosine, reference compound], the “concentration that completely inhibited the growth of wild type yeast cells” value in experiment [2] (BY4743, YPD) amounted to 40 µM. Further, the “inhibitory concentration relative to inhibitory concentration of hypoculoside” value in [2] is listed as “about 4 fold”. In experiment [3], the “growth of the 5 hypoculoside-sensitive mutants compared with wild type strain” value is reported as “lower in comparison to wild type strain”. The “rescue of myriocin-induced inhibition” value in experiment [4] is on record as “completely rescued”. Besides, the “growth inhibition” value in the experiment on Staphylococcus aureus is on record as “inhibit the growth”.
Turning to `CCCCCCCCCCCCCCC[C@@H](O)[C@H](C)N` [spisulosine, 1-deoxysphinganine], in the experiment on cancer cell lines, the “activity against cancer cell lines” value is reported as “potent activity”.
